Source: patent publication US8548786B2, “Neuronal avalanche assay” (priority 2005, dated 2013)
Counter-ions that a name gives are not always drawn.

What was measured:
[1] = system: acute slices of rat medial prefrontal cortex (mPFC); assay: Neuronal avalanche (NAS) assay, microelectrode array LFP recording in acute mPFC slices;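 also: 60-electrode array recordings, low-pass filtered at 200 Hz and sampled at 1 kHz, nLFPs detected below −3 SD of electrode noise, avalanches as runs of active bins between silent bins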
Experimental: Continuous extracellular signals v(t) can be recorded between 0.1 Hz and 3000 Hz, low-pass filtered at 200 Hz (Butterfly-filter, Multichannel Systems), digitised at a rate of 1 kHz (Δt=1 ms) and stored. For each electrode k (k=[1, nelec], nelec=60), the electrode noise of v(t) can be estimated by calculating the mean and standard deviation (SD) of v(t) from the total duration of the recording, Ttot, which can range, for example, between 40-60 min. […] Negative LFP peaks (nLFPs) at electrode k can be detected by negative threshold crossing at −3 SD of electrode noise and can be characterized by the time and absolute amplitude of the negative LFP peak, A^k(ti), before v(t) returned to threshold. More precisely, at a given temporal resolution Δt, nLFPs at electrode k can be represented by a vector of length nmax, where nmax is an integer value for which Ttot=nmax·Δt. This vector can contain zeros, except for positions ti=i·Δt, iε[1, . . . , nmax,] with values A^k(ti) in μV.
A neuronal avalanche is a sequence of consecutive time bins of width Δt with at least one nLFP, which is preceded and terminated by at least one time bin with no activity (FIG. 3A). The absence of activity for a period of Δt thus indicates the end of an avalanche. If the decision of whether an avalanche has ended is made too early (Δt too short), avalanches will be terminated prematurely; if the Δt chosen is too long, avalanches will be falsely concatenated. If avalanches did simply propagate like a wave, an approximation for Δt (Δtavg) could be obtained by averaging the time between one nLFP at one electrode and the next nLFP at neighbouring electrodes only. Because nLFPs in avalanches occur in irregular patterns across electrodes on the array, a pair wise approximation can be used in order to assess the average time that is required for nLFPs to propagate between electrodes.
In order to calculate Δtavg, the distribution of time intervals T for successive nLFPs on the array can be obtained. Starting with the first nLFP, e.g. A^k(ti) on electrode k at time ti, the next occurrence of an nLFP on the array can be searched for, e.g. A^l(tj) on electrode l at time tj, and calculated the time interval Tm-Δt^k,l, where m=(tj−ti)/Δt. This process can be repeated for all occurrences of nLFPs on electrode k and for all electrodes. The resulting values can be combined into one density distribution P(TmΔt), which captures how often successive nLFPs occurred with a particular delay m·Δt on the array irrespective of their spatial location. Consequently, the average value of T provides an approximation for Δtavg, the average time to wait before making a decision whether an nLFP propagated on the array. However, this interval distribution is highly skewed, particularly when one compares the last nLFP with the first nLFP in successive avalanches that are separated by long times. In order to exclude time intervals from successive nLFPs that are barely correlated, a cut-off time τmax can be calculated for which the average crosscorrelation function (ccf) for pair wise electrode comparisons Rccf(τ) had decayed to negligible values. The ccf between electrodes k, l (Rccf^k,l(τ)) can be calculated as
Because the exemplary maximal sampling rate was 1 kHz, the actual Δt^avg to calculate avalanches can be taken as the nearest multiple of Δt=1 ms. In short, after Δtavg was calculated for a particular network and experimental condition, the extracellular signals v(t) can be re-sampled at the new temporal resolution of Δtavg. Time and amplitude of nLFP peaks can be extracted as A^k(ti), where ti=i·Δtavg, iε[1, n′max] and Ttot=n′max·Δtavg. Avalanches can be determined on the downsampled data set at bin width Δtavg.
Avalanche sizes can be calculated in two different ways (see also FIG. 3A).

[2] = system: organotypic cortex-VTA cultures; assay: γ-oscillations and neuronal avalanches in organotypic cortex-VTA co-cultures; assay type: cell-based, rat
Experimental: Cortical extracellular neuronal activity was recorded in organotypic cortex-VTA cultures using 8×8 multielectrode arrays (FIG. 17A). The activity in the cortical tissue started as isolated single unit activity, which later formed bursts of multi-unit activity in the form of oscillations (FIG. 17B). […] The appearance of oscillatory activity ranged from closely placed isolated LFPs to frank sinusoidal waves lasting from 50 ms to 500 ms. […] LFP amplitudes varied from −10 μV to −1200 μV (mean=−38.2±3.4 μV) and varied between cultures −10.68±0.53 μV to −223.6±19.25 μV (mean high value).
Organotypic co-cultures were prepared from the frontal cortex (EC) and ventral-tegmental area (VTA) isolated from postnatal day 1-2 (PND) old rats. The VTA slices were cut at a thickness of 500 μm and cortex at 350 μm. The culture was done with cortex placed on multielectrode arrays (Multichannel Systems, Reutlingen, Germany) with electrode diameter of 30 μm and interelectrode distance of 200 μm. Cultivation and recording was done in a sterile chamber on the microelectrode array as described above. The culture was kept within the incubator with the rocking movement (˜0.005 Hz) throughout the recording. Spontaneous extracellular signals were recorded at a sampling frequency of 4 kHz with 1 kHz low pass filtering continuously for an average of 4±1 hrs. The temperature inside incubator was maintained at 35±0.5° C.
Neuronal oscillatory activity was analyzed by calculating the power spectrum from periods of prominent LFP activity, i.e. LFP bursts using a discrete Fast Fourier Transform in Matlab (Mathworks). Periods of prominent LFP activity were identified by negative threshold crossing at −3 SD from electrode noise. When calculating the average power spectrum for an activity period on the array, the duration for selecting activity periods was taken as the average duration of individual oscillatory activity in each recording session. While taking activity regions care was taken to avoid recalculation of spectra from the same time period in same electrode. The power spectrum of noise for each electrode was separately calculated from 20 separate recording regions where no activity was present and the power in the noise was subtracted from that in the signal. The selected signal region was filtered with a Hanning window (a cosine window defined by: w(k+1)=0.5*(1−cos(2*pi*(k/(n−1)))), k=0, 1, 2 . . . n−1) before calculating the power spectrum. The power spectrum of each activity period was calculated and averaged from all the active electrodes in each activity period. Then the power spectrum was averaged over the entire 4 hr recording.
To test the hypothesis, that neuronal avalanches might persist in the presence of oscillatory activity, the signals from all channels were analyzed for LFPs occurring with a peak 3×SD above noise (FIG. 19). This yielded a raster with time of occurrence and peak amplitude of LFPs (FIGS. 19B,C). The data was binned at Δtavg obtained from cross correlation analysis. […] Plotting the probability of occurrence of avalanches of different sizes against avalanches in log-log coordinates of different sizes yielded a curve with slope α=−1.5 (FIGS. 19D,E; mean=−1.53±0.02, n=9).
About 3 μl of the stock solution was added to the ˜600 μl of culture media in the multielectrode array chamber to reach a final concentration of 10 μM. […] The concentration of DMSO in the working solution was limited to 0.01%. Each addition of the drug was followed by 4 hours of continuous recording, after which the culture was washed by replacing the culture medium with 50% of conditioned media (collected from the same culture the day before drug application) and 50% of fresh, unconditioned medium, followed by 4-8 hrs of recording.

[3] = system: organotypic cortex cultures; assay: Neuronal avalanche assay in organotypic cortex slice cultures on microelectrode arrays; assay type: cell-based, rat
Experimental: Organotypic cultures from slices of rat cortex were prepared in accordance with NIH guidelines. Coronal sections from rat brains (Sprague Dawley, Taconic Farms, Md., USA) at postnatal day 0-2 were cut at 350 μm thickness. A coronal slice section containing dorsal or dorsolateral cortex (˜1.5 mm deep and ˜2-3 mm wide) was positioned on a multi-electrode array (Multichannelsystems, Reutlingen, Germany). The array covered ˜50-70% of the cortical tissue with the bottom row aligned to infragranular layers and the upper rows extending beyond layer I. This arrangement allowed for the dorsal expansion of the cortical slice on the multielectrode array, which results from the development of superficial layers during the first weeks postnatal in rat cortex. The slices were attached to the pre-cleaned, poly-D-lysine coated multielectrode array-surface by coagulation with 15 μl chicken plasma and 15 μl of bovine thrombin (Sigma St. Louis, Mo., USA), after which cultures were grown at 35.5° C. in normal atmosphere in a culture medium consisting of 50% Basal Medium Eagle, 25% Hanks Balanced Salt Solution and 25% horse serum, 0.5% glucose, and 0.5 mM L-glutamine (all Gibco, Grand Island, N.Y., USA). Photographs taken at 1-3 DIV and after recording sessions confirmed the position of recording electrodes in the cortical tissue and organotypic cortex slice culture.
A custom-built incubator was used in order to allow for long-term pharmacological experiments and repetitive, sterile recording sessions at different developmental stages under identical recording and culturing conditions. The chamber design and preparation of the multielectrode array for recordings has been described in more detail previously. In short, each multielectrode array consisted of a square glass plate (5×5 cm, 1 mm thickness) with a square array of 60 microelectrodes made of titanium nitride (8×8 grid with the corners missing) at its center (Egert et al., 1998). Titanium nitride electrodes were flat and disk-shaped with a diameter of 30 μm, an inter electrode spacing of 200 μm, and were attached to gold leads that ended at the edge of the glass square and served as contacts for the amplifier head stage. A circular glass well (˜10 mm diameter) with a Teflon cap was centered and cured to the glass plate by Sylgard® functioned as a tight-sealed, sterile culture chamber.
Multielectrode arrays were placed onto storage trays inside the incubator and gently rocked. The temperature inside incubator was maintained at 35±0.5° C. For optimal culture survival and culture growth a rocking trajectory was used that approximated a sinusoidal function (˜400 s cycle time) with brief halts of ˜10 s at the steepest angle before reversing directions. At the points of direction reversal, cultures were exposed to the inner chamber atmosphere. […] After 3 and 27 days in vitro (DIV), […] of mitosis inhibitor was added for 24 hr ([…]; calculated to final concentration; all Sigma). Medium was changed every 3-5 days. No antibiotics were used throughout cultivation and recording periods.
For recordings, individual multielectrode arrays were placed into the recording head stage (MultiChannelSystems, Inc.), which was affixed to a second tray within the incubator and had the exact same motion as the primary storage tray. This allowed recording in culture medium under conditions identical to growth conditions. The exchange between recording and storage location for each multielectrode array took few seconds and was done without interruption of the rocking cycle. Activity occurred spontaneously in organotypic cortex cultures and was recorded up to 5 hrs giving rise to >10,000 avalanches per network.
Overall, negative local field potentials (nLFPs) occurred at 82±5% of the electrodes in the acute slices and 88±5% of the electrodes in cultures. Data was sampled at 1 kHz and low pass filtered at 50 Hz. […]

[4] = system: organotypic cortex-VTA cultures; assay: γ-oscillations and neuronal avalanches in organotypic cortex-VTA co-cultures; assay type: cell-based, rat; remark: listed apart in the source
[5] = similar for each dopamine concentration, + 3 μM NMDA, n=26 slices

CN1CCc2cc(Cl)c(O)cc2[C@@H](c2ccccc2)C1 (racemic) [SCH23390, R(±)-7-chloro-8-hydroxy-3-methyl-1-phenyl-2,3,4,5-tetrahydro-1H-3-benzazepine hydrochloride] was tested, and the “slope αLFP for washout of antagonist” value ([1]; after washout of 10 μM SCH23390, 30 μM dopamine + 3 μM NMDA) was −1.55±0.06, the “shift of peak frequency in the high frequency band from its original value” ([2]; SCH23390 10 μM) was 59±1% and the “reduction of power of dominant frequencies between 40-120 Hz” value ([2]; SCH23390 10 μM, n=5) was “more than 50%”. For the same molecule, the “slope α of avalanche size distribution” value ([2]; SCH23390 10 μM, n=5) was −1.60±0.04.

With CN1CCN(C2=Nc3cc(Cl)ccc3Nc3ccccc32)CC1 [Clozapine, clozapine] the “network state of induced avalanche dynamics” value ([1]; clozapine 100 nM) was “epileptic”, the “slope αele of avalanche size distribution” value ([1]; clozapine 100 nM) was −2.07±0.08 and the “ΔPmax (likelihood of large avalanches beyond linear regression)” value ([1]; clozapine 100 nM) was 0.006. For the same molecule, the “total duration of induced LFP activity” value ([1]; clozapine 100 nM bath-applied) was roughly 40 min and the “initial slope αLFP of avalanche size distribution” value ([1]; clozapine 100 nM, Δtavg=1 ms, range 5-60 μV) was −2.00±0.13.

O=[N+]([O-])c1cc2nc(O)c(O)nc2cc1[N+](=O)[O-] [DNQX] was tested, and the “slope α of avalanche size distribution” value ([3]; DNQX 3 μM bath-applied, 6 cortical cultures, control −1.5) was roughly −2.

In the case of CN[C@H](CC(=O)O)C(=O)O [NMDA, N-Methyl-D-Aspartate], the “nLFP and avalanche activity induced by NMDA alone” value ([1]; 3 μM NMDA alone in the presence of 10 μM SCH23390, n=7) is reported as “negligible nLFP and avalanche activity”.

CN1[C@@H]2CC[C@H]1C[C@@H](OC(=O)C(CO)c1ccccc1)C2 (stereo partly drawn) [atropine] was tested, and the “neuronal avalanche induction with muscarinergic receptors blocked” value ([1]; atropine 10 μM + 3 μM NMDA + 3 μM SKF38393) was “did not block neuronal avalanche induction” and the “power law slope αLFP with muscarinergic receptors blocked” value ([1]; atropine 10 μM + 3 μM NMDA + 3 μM SKF38393, n=6) was −1.696±0.045.

For NCCc1ccc(O)c(O)c1 [dopamine], the “maximal area sele within the power law regime” value ([1]; 30 μM dopamine + 3 μM NMDA) was roughly 18 electrodes, the “optimal bin width Δtavg” value ([1]; 30 μM dopamine + 3 μM NMDA) was 2.7 ± 0.2 ms and the “slope αLFP of avalanche size distribution (summed nLFP amplitudes)” value ([1]; 30 μM dopamine + 3 μM NMDA bath-applied, sLFP=6-300 μV) was −1.50±0.03. For the same molecule, the “τmax for which Rccf dropped below 10^−4” value ([1]; 30 μM dopamine + 3 μM NMDA, all n=6 slices) was 60 ms, the “cortical layer localisation of induced avalanche activity” value ([1]; 30 μM dopamine + 3 μM NMDA, cortical depth 200-900 μm) was “strongest in superficial layers II/III” and the “propagation velocity for nLFPs on the array” value ([1]; 30 μM dopamine + 3 μM NMDA, inter-electrode distance 200 μm) was roughly 74 mm/s. The “slope αele of avalanche size distribution (number of active electrodes)” value ([1]; 30 μM dopamine + 3 μM NMDA, sele=1-18 electrodes) was −1.47±0.03, the “increase in likelihood of family recurrence beyond chance level” value ([1]; 30 μM dopamine in the presence of 3 μM NMDA) was roughly 500% and the “Δtavg, average for all dopamine concentrations” value ([1]; all dopamine concentrations tested + 3 μM NMDA, n=26 experiments) was 2.7 ± 0.1 ms. For the same molecule, the “mean nLFP peak, rate of nLFPs per electrode and total activity Atot, dependence on dopamine concentration” value ([1]; dopamine + 3 μM NMDA, inverted-U profile) was “maximal at moderate concentration of dopamine (30 μM)”, the “slope α of cluster size distribution” value ([1]; dopamine concentrations lower or higher than 30 μM, + 3 μM NMDA) was roughly −2 and the “duration of spontaneous activity” value [1, 5] was 43 ± 3 min. The “number of active electrodes” value [1, 5] was 33±4 electrodes.

With CCN1CCCC1CNC(=O)c1cc(S(N)(=O)=O)ccc1OC (stereo not drawn) [sulpiride] the “change in γ frequency” value ([2]; sulpiride 10 μM) was “without a change in frequency”, the “change of power of γ-activity” value ([2]; sulpiride 10 μM, n=5) was “doubled” and the “slope α of avalanche size distribution” value ([2]; sulpiride 10 μM, n=5) was −1.37±0.02.

picrotoxin was tested, and the “nLFP and avalanche activity after adding GABAA antagonist” value ([1]; 10 μM picrotoxin added to activity sustained by 30 μM dopamine + 3 μM NMDA) was “ceased”, the “maximal time difference between correlated electrodes τmax” value ([1]; picrotoxin alone 10 μM) was 30.5±7.2 and the Δtavg ([1]; picrotoxin alone 10 μM) was 2.3±0.2. For the same molecule, the avalanche rate ([1]; picrotoxin alone 10 μM, n=6) was 0.18±0.02 Hz, the “duration of spontaneous activity” value ([1]; picrotoxin alone 10 μM, n=6) was 28 ± 2 min and the nLFP rate ([1]; picrotoxin alone 10 μM, n=6) was 0.01±0.001 Hz. The “total activity Atot” value ([1]; picrotoxin alone 10 μM, n=6) was 5033±719 μV, the “initial slope αLFP of disinhibited activity” value ([1]; picrotoxin alone 10 μM, sLFP=15-85) was −1.9±0.08 and the “initial slope αele of disinhibited activity” value ([1]; picrotoxin alone 10 μM, sele=1-5) was −1.97±0.02. For the same molecule, the “spontaneous avalanche induction with co-applied GABAA antagonist” value ([1]; picrotoxin co-applied with 3 μM NMDA and 3 μM SKF38393, n=6) was “prevented spontaneous avalanches induction altogether”, the “average burst duration in the network” value ([2]; picrotoxin, n=3 cultures) was “increases the average burst duration” and the “power in the δ/θ-frequency range” value ([2]; picrotoxin, single culture) was “increases the power in the δ/θ-frequency range”. For the same molecule, the “shape of avalanche size distribution” value ([4]; picrotoxin 5 μM) was “almost bimodal”, the “reduction of γ-oscillations” value ([4]; picrotoxin 5 μM bath-applied) was “more than 50%” and the “initial slope α of avalanche size distribution” value ([3]; picrotoxin 3 μM (FIG. 24C legend)) was roughly −2. The “over-representation of large avalanches, epileptic vs sub-critical state” value ([3]; picrotoxin 3 μM vs DNQX 3 μM) was roughly 10 times, the “decrease in average rate of spontaneous nLFPs” value ([3]; picrotoxin 5 μM, N=4 cultures) was 80±23% and the “increase of deviations in nLFP waveforms relative to initial nLFP” value ([3]; picrotoxin 5 μM, first time step) was roughly 3.5 fold. The “probability of nLFP being larger than nLFP in the preceding time step” value ([3]; picrotoxin 5 μM, normal conditions 0.5) was roughly 0.58, the “increase of deviations in nLFP waveforms relative to initial nLFP” value ([3]; picrotoxin 5 μM, within 8 time steps) was roughly 6 fold and the “initial slope α of avalanche size distribution” value ([3]; picrotoxin 2-3 μM) was −1.8. The “shape of avalanche size distribution” value ([3]; picrotoxin 2-3 μM) was “bimodal distribution”.
